This note sets out measurements from ChEMBL document CHEMBL1268834, “Expansion of SAR studies on triaryl bis sulfone cannabinoid CB2 receptor ligands” (Bioorg Med Chem Lett, 2010).

SMILES strings stand for the structures.

For series [1], the target named is Cannabinoid receptor 2 (Homo sapiens, UniProt P34972). Description: Inhibition of beta-arrestin binding to recombinant cannabinoid CB2 receptor.
Series [2] is described as follows: Selectivity ratio of Ki for recombinant cannabinoid CB1 receptor to Ki for recombinant cannabinoid CB2 receptor.
Series [3] is described as follows: AUC in rat at 10 mg/kg. Format: ADME, organism-based. Details: dose 10 mg/kg. Particulars: plasma.

Chain of Cannabinoid receptor 2 (P34972 whole entry): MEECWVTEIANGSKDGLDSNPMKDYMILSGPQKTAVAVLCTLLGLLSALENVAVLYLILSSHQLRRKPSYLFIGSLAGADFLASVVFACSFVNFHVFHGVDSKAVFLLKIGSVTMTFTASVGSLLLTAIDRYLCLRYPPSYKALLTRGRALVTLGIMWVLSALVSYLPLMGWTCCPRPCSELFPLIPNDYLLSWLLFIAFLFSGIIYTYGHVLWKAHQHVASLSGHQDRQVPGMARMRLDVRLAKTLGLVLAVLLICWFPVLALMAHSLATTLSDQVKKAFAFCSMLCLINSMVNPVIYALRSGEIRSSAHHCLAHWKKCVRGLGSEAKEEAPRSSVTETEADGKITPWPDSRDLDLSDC

On to `CC1(C)CN(S(=O)(=O)c2cc3ccccc3n2S(=O)(=O)c2ccccc2F)CCC1CNS(=O)(=O)C(F)(F)F` (configuration not stated), for which the Ki in series [1] was found to be 4.2 nM. Moreover, the Ratio Ki in series [2] was 245.
On the same counts, the results for `O=S(=O)(c1cc2ccccc2n1S(=O)(=O)c1ccccc1F)N1CCCC(CCNS(=O)(=O)C(F)(F)F)C1` (configuration not stated) are 258 nM and 3.
On the same counts, the results for `O=S(=O)(c1cc2ccccc2n1S(=O)(=O)c1ccccc1F)N1C[C@@H]2[C@@H](CNS(=O)(=O)C(F)(F)F)[C@@H]2C1` are 9 nM and 279.
For `CC(NS(=O)(=O)C(F)(F)F)C1CCN(S(=O)(=O)c2cc3ccccc3n2S(=O)(=O)c2ccccc2F)CC1` (configuration not stated) the same measures were 0.4 nM and 2080.
As to `C[C@@H](NS(=O)(=O)C(F)(F)F)c1ccc(S(=O)(=O)n2cccc2S(=O)(=O)c2ccccc2F)cc1`, the Ki in series [1] stood at 8.4 nM. Besides, the Ratio Ki in series [2] stood at 962.
As to `C[C@@H](NS(=O)(=O)C(F)(F)F)c1ccc(S(=O)(=O)c2cc3ccccc3n2S(=O)(=O)c2ccccc2F)cc1`, the Ki in series [1] worked out at 7.5 nM. Moreover, the Ratio Ki in series [2] came to 1340.
`CC[C@]1(CNS(=O)(=O)C(F)(F)F)CCN(S(=O)(=O)c2cc3ccccc3n2S(=O)(=O)c2ccccc2F)C[C@H]1C`: in series [1], the Ki was 3.1 nM. For the same compound, the Ratio Ki in series [2] was 630.
As for `Cn1c(S(=O)(=O)c2ccccc2F)c(S(=O)(=O)N2CCC(CNS(=O)(=O)C(F)(F)F)CC2)c2ccccc21`, the Ki in series [1] turned out to be 70 nM. Further, in series [2], the Ratio Ki is 364.
As to `O=S(=O)(c1cc2ccccc2n1S(=O)(=O)c1ccccc1F)N1CCC(O)(CNS(=O)(=O)C(F)(F)F)CC1`, the Ki in series [1] came to 0.2 nM. Further, the Ratio Ki in series [2] turned out to be 4380.
On the same counts, the results for `CC1(CNS(=O)(=O)C(F)(F)F)CCN(S(=O)(=O)c2cc3ccccc3n2S(=O)(=O)c2ccccc2F)CC1` are 0.35 nM and 6720.
For `C[C@@H]1CN(S(=O)(=O)c2cc3ccccc3n2S(=O)(=O)c2ccccc2F)CC[C@@H]1CNS(=O)(=O)C(F)(F)F` the same measures were 1.5 nM and 6670.
With `COC1(CNS(=O)(=O)C(F)(F)F)CCN(S(=O)(=O)c2cc3cccnc3n2S(=O)(=O)c2ccccc2F)CC1`, the Ki in series [1] turned out to be 2.5 nM. Moreover, the Ratio Ki in series [2] was 3200. In series [3], this compound came in with an AUC of 3.19 µM·h.
On to `C[C@@H](NS(=O)(=O)C(F)(F)F)c1ccc(S(=O)(=O)c2ccoc2S(=O)(=O)c2ccccc2F)cc1`, for which the Ki in series [1] was found to be 4.4 nM. Also, in series [2], the Ratio Ki was 2690.
Turning to `C[C@H]1C[C@H](CNS(=O)(=O)C(F)(F)F)CCN1S(=O)(=O)c1cc2ccccc2n1S(=O)(=O)c1ccccc1F`, the Ki in series [1] worked out at 16 nM. Further, the Ratio Ki in series [2] is 334.
For `C[C@@H]1CN(S(=O)(=O)c2cc3ccccc3n2S(=O)(=O)c2ccccc2F)CC[C@H]1CNS(=O)(=O)C(F)(F)F` the same measures were 0.5 nM and 2260.
On the same counts, the results for `CC(C)C1(CNS(=O)(=O)C(F)(F)F)CCCN(S(=O)(=O)c2cc3ccccc3n2S(=O)(=O)c2ccccc2F)C1` (configuration not stated) are 78 nM and 24.
As to `CC(C)(NS(=O)(=O)C(F)(F)F)C1CCN(S(=O)(=O)c2cc3ccccc3n2S(=O)(=O)c2ccccc2F)CC1`, the inhibition constant Ki in series [1] is 171 nM. Besides, the Ratio Ki in series [2] came to 171.
Regarding `O=S(=O)(c1ccccc1F)c1occc1S(=O)(=O)N1CCC(CNS(=O)(=O)C(F)(F)F)CC1`, the Ki in series [1] amounted to 1.4 nM. Moreover, the Ratio Ki in series [2] is 4520.
Turning to `O=S(=O)(c1cc2ccccc2n1S(=O)(=O)c1ccccn1)N1CCC2(CC1)C[C@@H]2NS(=O)(=O)C(F)(F)F`, the Ki in series [1] was found to be 0.4 nM. The Ratio Ki in series [2] was 3500. Besides, in series [3], the AUC was 4.56 µM·h.
Regarding `CN(C)c1ncccc1S(=O)(=O)n1c(S(=O)(=O)N2CCC(CNS(=O)(=O)C(F)(F)F)CC2)cc2ccccc21`, the Ki in series [1] turned out to be 23 nM. Moreover, in series [2], the Ratio Ki came out at 126.
On the same counts, the results for `O=S(=O)(c1cc2ccccc2n1S(=O)(=O)c1ccccc1F)N1CC(CCNS(=O)(=O)C(F)(F)F)C1` are 249 nM and 11.
For `O=S(=O)(c1cc2ccccc2n1S(=O)(=O)c1ccccn1)N1CCC(CNS(=O)(=O)C(F)(F)F)CC1` the same measures were 0.9 nM and 9180.
As to `CCCC1(CNS(=O)(=O)C(F)(F)F)CCN(S(=O)(=O)c2cc3ccccc3n2S(=O)(=O)c2ccccn2)CC1`, the Ki in series [1] is 1.6 nM. Moreover, in series [2], the Ratio Ki was determined as 26400. Also, the area under the curve (AUC) in series [3] is 17.6 µM·h.
In the case of `COc1ccc2c(c1)cc(S(=O)(=O)N1CCC(CNS(=O)(=O)C(F)(F)F)CC1)n2S(=O)(=O)c1ccccc1F`, in series [1], the Ki turned out to be 0.8 nM. Moreover, in series [2], the Ratio Ki came to 5160.
Turning to `O=S(=O)(c1cc2ccccc2n1S(=O)(=O)c1ccccc1F)N1CCC2(CC1)C[C@@H]2NS(=O)(=O)C(F)(F)F`, the Ratio Ki in series [2] was 413.
As to `O=S(=O)(c1cc2ccccc2n1S(=O)(=O)c1ccccc1F)N1CCC(CNS(=O)(=O)C(F)(F)F)CC1`, the Ki in series [1] came out at 0.38 nM. In addition, in series [2], the Ratio Ki was 9250.
On the same counts, the results for `O=S(=O)(c1cc2ccccc2n1S(=O)(=O)c1ccccc1F)N1CCC2(CC(NS(=O)(=O)C(F)(F)F)C2)C1` (configuration not stated) are 452 nM and 117.
`O=S(=O)(c1cc2ccccc2n1S(=O)(=O)c1cccnc1)N1CCC(CNS(=O)(=O)C(F)(F)F)CC1`: the Ki in series [1] was found to be 41 nM. Also, the Ratio Ki in series [2] was 139.
For `O=S(=O)(c1cc2ccccc2n1S(=O)(=O)c1ccccc1F)N1CCC2(CC1)CN(S(=O)(=O)C(F)(F)F)C2` the same measures were 8430 nM and 12.
On the same counts, the results for `O=S(=O)(c1ccccc1F)c1ncccc1S(=O)(=O)N1CCC(CNS(=O)(=O)C(F)(F)F)CC1` are 790 nM and 126.
Consider `CCCC1(CNS(=O)(=O)C(F)(F)F)CCN(S(=O)(=O)c2cc3ccccc3n2S(=O)(=O)c2ccccc2F)CC1`, for which, in series [1], the Ki was 1.8 nM. The Ratio Ki in series [2] was 2520.
With `CCC1(CNS(=O)(=O)C(F)(F)F)CCN(S(=O)(=O)c2cc3cc(F)ccc3n2S(=O)(=O)c2ccccc2F)CC1`, the inhibition constant (Ki) in series [1] turned out to be 0.4 nM. Moreover, in series [2], the Ratio Ki turned out to be 2800. For the same compound, the AUC in series [3] was 3.77 µM·h.

As a reminder, the Ki is a measure of affinity in units of concentration, obtained from inhibition or displacement. As usually defined, the AUC is the area under the concentration-time curve, a measure of exposure. Read a low AUC as less exposure.
